Laboratory results reported in ChEMBL document CHEMBL1201862, “PubChem BioAssay data set” (2004).
Each block holds one compound with its values, some of them ahead of it. The source made the active and inactive calls.

What was measured:
HeLa = test: ATP-based viability loss in HeLa cells – cell-based, CellTiter-Glo luminescence, cherry-pick samples, cytotoxicity control for MITF activator project, dose response (AID 540259); assay type: functional; settings: Homo sapiens
[1] = Trypanosoma cruzi growth suppression in host cells – NIH3T3 host cells, beta-gal luminescence, confirmation (AID 2044); assay type: functional, cell-based;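 further: intracellular parasites grown in NIH/3T3 mouse fibroblasts as host cells; luminescent beta-galactosidase reporter signal from transgenic T. cruzi replicating inside host cells; inhibitors lower the luminescence signal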
[2] = NIH3T3 cell viability loss – ATP luminescence, mouse fibroblasts, counter-screen, dose response (AID 2010); assay type: functional, cell-based;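 further: cells exposed to compound for about 90 hours before reading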
Exodeoxyribonuclease V = molecular target: T1, Exodeoxyribonuclease V (Escherichia coli (strain K12), UniProt P04993+P07648+P08394); test: RecBCD inhibition via phage-restricted bacterial growth – absorbance, V66 E. coli, mutant T4 phage, counter-screen for AddAB inhibitor project, dose response (AID 492957); assay type: functional, cell-based, Escherichia coli str. K-12 substr. MG1655
T1 sequence (P04993 whole entry): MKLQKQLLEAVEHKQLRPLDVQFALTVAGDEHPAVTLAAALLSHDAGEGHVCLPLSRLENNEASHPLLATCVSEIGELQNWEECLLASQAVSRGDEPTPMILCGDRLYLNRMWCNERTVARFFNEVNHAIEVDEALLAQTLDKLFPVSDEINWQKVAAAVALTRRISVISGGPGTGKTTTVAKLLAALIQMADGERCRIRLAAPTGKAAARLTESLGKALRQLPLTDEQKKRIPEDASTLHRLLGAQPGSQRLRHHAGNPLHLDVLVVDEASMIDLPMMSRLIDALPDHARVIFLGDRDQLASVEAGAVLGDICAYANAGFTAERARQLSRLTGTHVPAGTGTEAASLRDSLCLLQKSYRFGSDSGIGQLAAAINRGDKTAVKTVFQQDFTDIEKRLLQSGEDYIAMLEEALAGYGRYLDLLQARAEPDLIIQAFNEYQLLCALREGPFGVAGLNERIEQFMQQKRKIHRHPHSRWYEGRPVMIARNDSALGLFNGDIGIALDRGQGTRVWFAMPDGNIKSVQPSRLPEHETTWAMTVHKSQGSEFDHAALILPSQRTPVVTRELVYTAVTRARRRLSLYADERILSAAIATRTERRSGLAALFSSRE
T1 sequence (P07648 whole entry): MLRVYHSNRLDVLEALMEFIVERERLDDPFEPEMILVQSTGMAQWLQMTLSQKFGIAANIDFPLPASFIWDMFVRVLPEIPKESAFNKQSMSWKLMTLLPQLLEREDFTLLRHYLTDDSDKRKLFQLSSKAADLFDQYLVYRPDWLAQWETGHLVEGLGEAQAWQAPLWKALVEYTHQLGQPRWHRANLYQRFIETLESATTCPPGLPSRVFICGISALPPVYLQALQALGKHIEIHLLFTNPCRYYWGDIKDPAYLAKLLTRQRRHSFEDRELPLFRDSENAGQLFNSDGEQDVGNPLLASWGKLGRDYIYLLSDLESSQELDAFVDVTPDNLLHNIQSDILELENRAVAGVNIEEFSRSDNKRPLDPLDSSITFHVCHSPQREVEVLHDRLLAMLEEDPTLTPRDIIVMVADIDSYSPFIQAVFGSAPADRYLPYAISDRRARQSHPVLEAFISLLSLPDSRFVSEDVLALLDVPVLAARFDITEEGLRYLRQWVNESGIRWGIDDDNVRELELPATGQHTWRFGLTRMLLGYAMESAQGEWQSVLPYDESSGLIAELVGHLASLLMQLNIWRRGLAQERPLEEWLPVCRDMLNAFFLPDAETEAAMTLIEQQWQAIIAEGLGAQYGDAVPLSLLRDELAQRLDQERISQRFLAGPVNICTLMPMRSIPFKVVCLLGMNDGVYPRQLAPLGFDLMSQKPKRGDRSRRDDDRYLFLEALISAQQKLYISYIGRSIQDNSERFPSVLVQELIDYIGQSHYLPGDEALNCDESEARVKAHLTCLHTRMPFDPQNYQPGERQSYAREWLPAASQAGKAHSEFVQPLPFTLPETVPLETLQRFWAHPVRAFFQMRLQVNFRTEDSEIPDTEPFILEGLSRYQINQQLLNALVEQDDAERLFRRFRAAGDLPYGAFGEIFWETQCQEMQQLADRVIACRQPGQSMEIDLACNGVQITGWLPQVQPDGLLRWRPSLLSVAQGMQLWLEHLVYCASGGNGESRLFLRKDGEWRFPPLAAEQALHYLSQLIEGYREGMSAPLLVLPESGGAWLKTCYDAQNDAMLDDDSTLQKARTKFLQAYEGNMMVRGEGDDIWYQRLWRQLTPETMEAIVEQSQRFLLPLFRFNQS
T1 sequence (P08394 whole entry): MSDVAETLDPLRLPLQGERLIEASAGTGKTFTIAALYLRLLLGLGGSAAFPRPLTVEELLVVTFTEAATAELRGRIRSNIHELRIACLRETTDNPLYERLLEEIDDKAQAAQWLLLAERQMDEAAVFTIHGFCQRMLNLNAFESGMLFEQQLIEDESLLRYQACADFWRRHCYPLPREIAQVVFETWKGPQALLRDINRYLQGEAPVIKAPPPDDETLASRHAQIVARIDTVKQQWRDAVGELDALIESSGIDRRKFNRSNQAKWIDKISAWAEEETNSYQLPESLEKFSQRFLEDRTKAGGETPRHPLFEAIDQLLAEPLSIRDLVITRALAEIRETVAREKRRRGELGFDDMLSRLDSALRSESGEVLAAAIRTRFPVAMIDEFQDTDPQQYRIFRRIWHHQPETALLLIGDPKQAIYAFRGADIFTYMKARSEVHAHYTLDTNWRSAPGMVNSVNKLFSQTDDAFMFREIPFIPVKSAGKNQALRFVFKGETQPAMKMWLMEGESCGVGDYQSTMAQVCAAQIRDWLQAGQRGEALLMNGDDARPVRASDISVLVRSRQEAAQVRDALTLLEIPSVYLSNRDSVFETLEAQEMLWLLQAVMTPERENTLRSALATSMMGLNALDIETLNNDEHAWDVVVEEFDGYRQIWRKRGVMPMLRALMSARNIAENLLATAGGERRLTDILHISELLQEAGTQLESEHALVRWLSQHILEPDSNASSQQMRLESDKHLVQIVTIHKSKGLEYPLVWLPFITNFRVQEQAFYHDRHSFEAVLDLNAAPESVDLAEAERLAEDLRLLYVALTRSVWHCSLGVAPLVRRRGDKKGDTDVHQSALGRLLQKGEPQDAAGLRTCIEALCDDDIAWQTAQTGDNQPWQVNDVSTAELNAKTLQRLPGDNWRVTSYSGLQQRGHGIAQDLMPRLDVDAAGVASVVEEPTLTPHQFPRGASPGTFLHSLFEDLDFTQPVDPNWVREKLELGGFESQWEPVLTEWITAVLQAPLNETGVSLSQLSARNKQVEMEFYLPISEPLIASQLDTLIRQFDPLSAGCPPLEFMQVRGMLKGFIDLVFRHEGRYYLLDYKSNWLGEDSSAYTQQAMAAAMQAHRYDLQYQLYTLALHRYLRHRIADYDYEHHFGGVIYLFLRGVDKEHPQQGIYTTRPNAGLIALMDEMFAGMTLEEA

[3] = Counterscreen for AddAB inhibitors: absorbance-based bacterial cell-based high throughput dose response assay for inhibitors of bacterial viability. [Related pubchem assays (depositor defined):AID435030, AID449728, AID449731, AID488942, AID488955, AID488956]; assay type: functional
[4] = reduction of Shn3 3'UTR-driven luciferase in osteoblasts – cell-based, Clone20 osteoblasts, firefly luciferase, cherry-picked, dose response (AID 624132); assay type: functional;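 further: firefly luciferase luminescence from reporter carrying the Shn3 3'UTR in osteoblasts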
[5] = loss of viability in HepG2 cells – cell-based, CellTiter-Glo, cherry-picked, cytotoxicity control for Shn3 inhibitor project, dose response (AID 624134); assay type: functional
Cytochrome P450 2D6 = Cytochrome P450 2D6 (Homo sapiens, UniProt P10635);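 further: CYP2D6 member of a cytochrome P450 panel assay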
[6] = molecular target: Voltage-dependent T-type calcium channel subunit alpha-1H (Homo sapiens, UniProt O95180); assay type: functional;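 further: channel activity triggered by adding a high calcium stimulation buffer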
Cytochrome P450 2C19 = Cytochrome P450 2C19 (Homo sapiens, UniProt P33261); test: Cytochrome panel assay with activity outcomes. Panel member name: p450-cyp2c19 Compounds with AC50 equal or less than 10 uM are considered active; assay type: functional
Cytochrome P450 3A4 = Cytochrome P450 3A4 (Homo sapiens, UniProt P08684);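 further: CYP3A4 tested as one member of a cytochrome P450 panel screen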
Cytochrome P450 1A2 = molecular target: T2, Cytochrome P450 1A2 (Homo sapiens, UniProt P05177);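 further: PubChem cytochrome P450 panel assay, CYP1A2 panel member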
T2 sequence (P05177 whole entry): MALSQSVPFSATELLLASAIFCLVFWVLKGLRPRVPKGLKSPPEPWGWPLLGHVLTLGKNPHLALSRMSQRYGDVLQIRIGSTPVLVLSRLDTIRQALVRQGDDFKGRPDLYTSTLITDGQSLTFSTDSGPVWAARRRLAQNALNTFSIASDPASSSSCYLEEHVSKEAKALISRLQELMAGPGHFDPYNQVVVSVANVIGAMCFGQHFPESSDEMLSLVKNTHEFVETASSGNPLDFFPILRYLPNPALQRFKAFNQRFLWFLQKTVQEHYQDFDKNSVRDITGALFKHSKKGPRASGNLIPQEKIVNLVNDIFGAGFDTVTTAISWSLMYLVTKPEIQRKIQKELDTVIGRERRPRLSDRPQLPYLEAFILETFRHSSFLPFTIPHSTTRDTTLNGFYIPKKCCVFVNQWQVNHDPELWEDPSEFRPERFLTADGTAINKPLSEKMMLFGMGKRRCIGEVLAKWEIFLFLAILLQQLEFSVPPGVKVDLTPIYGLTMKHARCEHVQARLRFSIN

Cytochrome P450 3A4, sequence (P08684 whole entry): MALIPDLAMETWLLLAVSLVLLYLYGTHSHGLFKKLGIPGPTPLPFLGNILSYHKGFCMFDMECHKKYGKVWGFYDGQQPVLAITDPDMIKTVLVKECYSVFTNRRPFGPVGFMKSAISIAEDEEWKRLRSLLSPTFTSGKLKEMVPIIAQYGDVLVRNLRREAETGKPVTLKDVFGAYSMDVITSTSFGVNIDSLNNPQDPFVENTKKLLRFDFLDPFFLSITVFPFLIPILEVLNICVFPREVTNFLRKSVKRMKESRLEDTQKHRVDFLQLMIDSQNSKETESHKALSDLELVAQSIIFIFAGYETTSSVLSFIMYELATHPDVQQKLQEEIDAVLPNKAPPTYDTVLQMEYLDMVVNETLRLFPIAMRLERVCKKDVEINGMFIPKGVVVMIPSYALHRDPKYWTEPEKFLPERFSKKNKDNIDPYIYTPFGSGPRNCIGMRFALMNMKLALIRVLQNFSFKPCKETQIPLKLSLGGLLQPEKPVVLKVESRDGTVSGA
Cytochrome P450 2D6, sequence (P10635 whole entry): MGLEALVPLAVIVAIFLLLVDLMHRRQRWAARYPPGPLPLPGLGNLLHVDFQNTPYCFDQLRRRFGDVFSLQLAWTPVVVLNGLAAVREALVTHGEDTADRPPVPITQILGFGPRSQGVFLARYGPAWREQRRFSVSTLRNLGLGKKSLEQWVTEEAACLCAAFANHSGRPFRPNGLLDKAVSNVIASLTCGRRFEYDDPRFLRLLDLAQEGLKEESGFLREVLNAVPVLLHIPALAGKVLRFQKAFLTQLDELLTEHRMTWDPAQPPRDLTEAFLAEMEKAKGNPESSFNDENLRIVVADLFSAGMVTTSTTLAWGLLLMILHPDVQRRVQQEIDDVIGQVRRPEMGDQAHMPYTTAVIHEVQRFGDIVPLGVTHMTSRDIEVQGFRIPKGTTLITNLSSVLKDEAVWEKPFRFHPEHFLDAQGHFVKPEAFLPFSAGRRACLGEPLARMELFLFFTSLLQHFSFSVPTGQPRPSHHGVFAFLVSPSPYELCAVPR
Cytochrome P450 2C19, sequence (P33261 whole entry): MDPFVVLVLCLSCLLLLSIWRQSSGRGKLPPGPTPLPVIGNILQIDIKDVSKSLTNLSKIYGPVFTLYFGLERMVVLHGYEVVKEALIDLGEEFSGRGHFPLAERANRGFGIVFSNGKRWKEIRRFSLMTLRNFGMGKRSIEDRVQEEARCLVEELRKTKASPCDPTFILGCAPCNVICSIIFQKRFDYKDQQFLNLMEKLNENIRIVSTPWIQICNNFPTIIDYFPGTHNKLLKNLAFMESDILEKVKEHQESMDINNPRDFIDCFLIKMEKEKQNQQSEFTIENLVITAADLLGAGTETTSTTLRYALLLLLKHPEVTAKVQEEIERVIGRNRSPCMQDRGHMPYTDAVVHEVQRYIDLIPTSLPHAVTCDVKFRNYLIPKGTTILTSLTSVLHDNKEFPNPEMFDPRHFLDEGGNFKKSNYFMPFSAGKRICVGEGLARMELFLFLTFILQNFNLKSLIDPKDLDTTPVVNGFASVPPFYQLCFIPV
Voltage-dependent T-type calcium channel subunit alpha-1H, sequence (O95180 whole entry): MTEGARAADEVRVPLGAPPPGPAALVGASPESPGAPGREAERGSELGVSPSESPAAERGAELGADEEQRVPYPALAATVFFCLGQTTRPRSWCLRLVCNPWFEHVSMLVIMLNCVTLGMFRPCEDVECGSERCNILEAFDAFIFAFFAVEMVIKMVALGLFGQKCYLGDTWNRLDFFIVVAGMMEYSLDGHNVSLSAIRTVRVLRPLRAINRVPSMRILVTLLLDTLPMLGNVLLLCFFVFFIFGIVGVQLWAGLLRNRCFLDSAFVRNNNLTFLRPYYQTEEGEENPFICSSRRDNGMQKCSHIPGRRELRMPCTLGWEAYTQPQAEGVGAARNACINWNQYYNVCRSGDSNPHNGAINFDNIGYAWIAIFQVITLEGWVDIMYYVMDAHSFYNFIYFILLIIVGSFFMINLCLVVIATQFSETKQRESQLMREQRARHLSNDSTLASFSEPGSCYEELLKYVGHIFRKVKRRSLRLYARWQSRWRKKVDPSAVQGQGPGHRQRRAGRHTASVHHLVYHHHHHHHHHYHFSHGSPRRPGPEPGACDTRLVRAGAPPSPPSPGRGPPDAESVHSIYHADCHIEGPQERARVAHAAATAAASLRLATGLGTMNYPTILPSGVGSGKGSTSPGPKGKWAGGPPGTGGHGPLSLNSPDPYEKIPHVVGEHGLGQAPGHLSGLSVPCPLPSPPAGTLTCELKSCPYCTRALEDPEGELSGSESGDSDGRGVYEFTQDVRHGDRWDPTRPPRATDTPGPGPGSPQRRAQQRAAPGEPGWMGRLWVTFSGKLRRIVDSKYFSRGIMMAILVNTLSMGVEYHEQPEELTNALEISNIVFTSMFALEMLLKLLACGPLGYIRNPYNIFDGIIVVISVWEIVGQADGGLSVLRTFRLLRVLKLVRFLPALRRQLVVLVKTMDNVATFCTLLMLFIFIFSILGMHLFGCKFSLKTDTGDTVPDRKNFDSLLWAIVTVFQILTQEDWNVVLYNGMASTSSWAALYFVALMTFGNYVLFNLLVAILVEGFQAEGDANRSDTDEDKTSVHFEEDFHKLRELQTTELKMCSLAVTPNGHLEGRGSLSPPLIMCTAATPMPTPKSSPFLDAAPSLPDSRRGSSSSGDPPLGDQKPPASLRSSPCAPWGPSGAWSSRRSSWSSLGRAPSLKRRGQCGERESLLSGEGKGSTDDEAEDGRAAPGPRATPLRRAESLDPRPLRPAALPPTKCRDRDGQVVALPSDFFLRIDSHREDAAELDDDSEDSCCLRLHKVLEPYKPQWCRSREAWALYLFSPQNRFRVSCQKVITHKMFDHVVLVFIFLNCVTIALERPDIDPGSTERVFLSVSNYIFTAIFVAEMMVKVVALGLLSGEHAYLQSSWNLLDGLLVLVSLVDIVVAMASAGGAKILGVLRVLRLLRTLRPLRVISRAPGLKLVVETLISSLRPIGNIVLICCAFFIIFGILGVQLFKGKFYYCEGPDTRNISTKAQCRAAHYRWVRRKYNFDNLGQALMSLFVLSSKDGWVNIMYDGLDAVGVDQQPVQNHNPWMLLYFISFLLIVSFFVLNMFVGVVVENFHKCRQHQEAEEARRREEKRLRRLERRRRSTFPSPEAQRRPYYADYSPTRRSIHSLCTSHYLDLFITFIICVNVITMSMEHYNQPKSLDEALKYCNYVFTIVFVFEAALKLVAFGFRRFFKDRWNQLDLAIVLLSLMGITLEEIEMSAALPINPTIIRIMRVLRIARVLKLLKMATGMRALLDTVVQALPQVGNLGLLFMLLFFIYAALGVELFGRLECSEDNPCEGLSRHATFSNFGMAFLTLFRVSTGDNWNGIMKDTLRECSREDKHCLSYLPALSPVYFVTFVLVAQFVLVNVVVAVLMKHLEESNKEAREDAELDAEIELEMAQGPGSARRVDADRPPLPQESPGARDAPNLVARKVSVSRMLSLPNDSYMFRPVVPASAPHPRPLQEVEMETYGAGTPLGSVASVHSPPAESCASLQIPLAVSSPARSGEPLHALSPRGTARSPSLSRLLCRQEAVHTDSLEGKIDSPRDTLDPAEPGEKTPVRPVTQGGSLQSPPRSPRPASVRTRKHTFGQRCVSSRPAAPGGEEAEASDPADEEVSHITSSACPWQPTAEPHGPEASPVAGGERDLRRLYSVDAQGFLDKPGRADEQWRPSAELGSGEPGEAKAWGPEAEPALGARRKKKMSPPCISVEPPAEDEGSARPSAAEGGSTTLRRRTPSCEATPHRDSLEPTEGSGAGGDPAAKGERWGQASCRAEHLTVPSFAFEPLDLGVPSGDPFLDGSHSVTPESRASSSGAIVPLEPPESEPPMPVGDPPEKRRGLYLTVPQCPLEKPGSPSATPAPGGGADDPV

Structure (SMILES): Cc1ccc(/C=N/c2sc3c(c2C#N)CCC3)s1
AC50 (HeLa): 82 µM (active)

Structure (SMILES): Cc1ccc(CNC(=O)c2ccc3c(O)c(O)c(-c4ccc(C)cc4)nc3c2)cc1
EC50 [1]: 1.14 µM (active) | EC50 [2]: 7.02 µM (active) | IC50 (Exodeoxyribonuclease V): > 119 µM (inactive) | IC50 [3]: > 119 µM (inactive) | AC50 [4]: 2.82 µM (active) | AC50 [5]: 3.49 µM (active)

Structure (SMILES): Cc1nc(-c2noc(-c3ccccc3Cl)n2)c(C(F)(F)F)o1
AC50 (HeLa): 291 µM (active)

Structure (SMILES): O=C1CN(/N=C\c2ccc(-c3ccc([N+](=O)[O-])cc3)o2)C(O)=N1
AC50 (Cytochrome P450 2D6): inactive

EC50 [6]: 11.1 µM (active) | AC50 (Cytochrome P450 2C19; read-out: AC50): 1.12 µM (inconclusive) | AC50 (Cytochrome P450 3A4): 39.8 µM (inconclusive) | AC50 (Cytochrome P450 2D6): inconclusive
Structure (SMILES): Cc1ccc(-c2nnn(CC(=O)N(c3ccccc3)C(C(=O)NCC3CCCO3)c3ccc(Cl)cc3)n2)cc1 (stereo unspecified)

Structure (SMILES): CCCS(=O)(=O)N1CCC(C(=O)NCc2ccccc2Cl)CC1
IC50 (Exodeoxyribonuclease V): > 119 µM (inactive) | IC50 [3]: > 119 µM (inactive)

AC50 (Cytochrome P450 2C19): inconclusive | AC50 (Cytochrome P450 3A4): 25.1 µM (inconclusive) | AC50 (Cytochrome P450 2D6): inconclusive
Structure (SMILES): CC(C)NC(=O)N1CCCC2(CCN(C(=O)c3cccc(F)c3)CC2)C1

AC50 (Cytochrome P450 1A2): 14.1 µM (inconclusive) | AC50 (Cytochrome P450 3A4): 6.31 µM (inconclusive) | AC50 (Cytochrome P450 2D6): inconclusive
Structure (SMILES): CCOC(=O)NCN1C(=O)C2C3C=CC(C3)C2C1=O (stereo unspecified)
